{
  "source": "patent US9186358B2",
  "about": "“Combination therapy for treating or preventing an inflammatory skin disorder” (GALDERMA LABORATORIES, L.P., priority 2009, dated 2015)",
  "key": {"AA-induced ear edema": {"tested_on": "AA-induced ear edema", "test": "Arachidonic acid (AA)-induced acute ear edema in mice", "assay_type": "in vivo, mice (BALB/c ByJ Rj)", "set-up": "Edema Mean: unit not given here", "conditions": "for reduced AA-induced ear edema in mice by up to: single topical application, highest over 1, 2 and 4 h; for Edema Mean / Inhibition vs AA %: topical with AA 4%", "protocol": "Positive control compound, indomethacin (CD0016), was dissolved in the AA solution at 5% by weight. […] Different compounds at different dosages were tested on 10 groups of animals, each group having 5 mice (see Table 4). […] After the last measurement, the animals were sacrificed by carbon dioxide following a preapproved protocol. The mean of the ear thickness measured from 5 animals in each of the 10 groups was calculated. The anti-inflammatory activity of a test compound was measured by its ability to reduce AA-induced ear edema, i.e., as the percentage of reduction in ear thickness of animals treated with the test compound and AA as compared with that treated with AA alone."}, "TPA-induced ear edema": {"tested_on": "TPA-induced ear edema", "test": "TPA-induced ear edema in mice", "assay_type": "in vivo, mice (BALB/c ByJ Rj)", "set-up": "Ear Edema Mean: unit not given beside the values", "conditions": "single topical application with TPA 0.01%, 6 h", "protocol": "The edema inducer, TPA, was dissolved in ethanol at 0.01% by weight to obtain a TPA solution (“TPA solution”). […] Positive control compound, betametasone valerate (CD0153), was dissolved in the TPA solution at 0.01% by weight. […] Different compounds at different dosages were tested on 10 groups of animals, each group having 5 mice (see Table 2). [table] The ear thickness of each of the 50 animals was measured at 6 hours after the compound application. After the measurement, the animals were sacrificed by carbon dioxide following a preapproved protocol. The mean of the ear thickness measured from 5 animals in each of the 10 groups was calculated. The anti-inflammatory activity of a test compound was measured by its ability to reduce TPA-induced ear edema, i.e., as the percentage of reduction in ear thickness of animals treated with both the test compound and TPA as compared with that treated with TPA alone."}, "[1]": {"conditions": "CD07805 at 0.2%, 1 h Measurement"}, "[2]": {"conditions": "CD07805 at 0.2%, 2 h Measurement"}, "[3]": {"conditions": "CD07805 at 0.2%, 4 h Measurement"}, "[4]": {"conditions": "CD08100/02 at 0.1%, 1 h Measurement"}, "[5]": {"conditions": "CD08100/02 at 0.1%, 2 h Measurement"}, "[6]": {"conditions": "CD08100/02 at 0.1%, 4 h Measurement"}, "[7]": {"conditions": "CD08100/02 at 0.3%, 1 h Measurement"}, "[8]": {"conditions": "CD08100/02 at 0.3%, 2 h Measurement"}, "[9]": {"conditions": "CD08100/02 at 0.3%, 4 h Measurement"}, "[10]": {"conditions": "CD08100/02 at 1%, 1 h Measurement"}},
  "data": [
    {"smiles": "COc1ccc2c(c1)c(CC(=O)O)c(C)n2C(=O)c1ccc(Cl)cc1", "note": "[CD0016, indomethacin]", "values": [
      {"measurement": "reduced AA-induced ear edema in mice by up to", "setting": "AA-induced ear edema; CD0016 at 5%", "value": "up to 94.2%"},
      {"measurement": "Edema Mean", "setting": "AA-induced ear edema; CD0016 at 5%, 1 h Measurement", "value": 0.8},
      {"measurement": "Inhibition vs AA %", "setting": "AA-induced ear edema; CD0016 at 5%, 1 h Measurement", "value": 93.1, "unit": "%"},
      {"measurement": "Edema Mean", "setting": "AA-induced ear edema; CD0016 at 5%, 2 h Measurement", "value": 0.6},
      {"measurement": "Inhibition vs AA %", "setting": "AA-induced ear edema; CD0016 at 5%, 2 h Measurement", "value": 94.2, "unit": "%"},
      {"measurement": "Edema Mean", "setting": "AA-induced ear edema; CD0016 at 5%, 4 h Measurement", "value": 0.4},
      {"measurement": "Inhibition vs AA %", "setting": "AA-induced ear edema; CD0016 at 5%, 4 h Measurement", "value": 93.5, "unit": "%"}
    ]},
    {"smiles": "CCCCC(=O)O[C@]1(C(=O)CO)[C@@H](C)C[C@H]2[C@@H]3CCC4=CC(=O)C=C[C@]4(C)[C@@]3(F)[C@@H](O)C[C@@]21C", "note": "[CD0153, betametasone valerate]", "values": [
      {"measurement": "Ear Edema Mean", "setting": "TPA-induced ear edema; CD0153 at 0.01%", "value": 0.40},
      {"measurement": "Inhibition vs TPA (%)", "setting": "TPA-induced ear edema; CD0153 at 0.01%", "value": 97.5, "unit": "%"}
    ]},
    {"smiles": "Brc1c(NC2=NCCN2)ccc2nccnc12", "note": "[CD07805, (5-bromo-quinoxalin-6-yl)-(4,5-dihydro-1H-imidazol-2-yl)-amine]", "values": [
      {"measurement": "Ear Edema Mean", "setting": "TPA-induced ear edema; CD07805 at 0.2%", "value": 8.60},
      {"measurement": "Inhibition vs TPA (%)", "setting": "TPA-induced ear edema; CD07805 at 0.2%", "value": 46.3, "unit": "%"},
      {"measurement": "reduced AA-induced ear edema in mice by up to", "setting": "AA-induced ear edema; CD07805 at 0.2%", "value": "up to 80.8%"},
      {"measurement": "Edema Mean", "setting": "AA-induced ear edema; [1]", "value": 2.8},
      {"measurement": "Inhibition vs AA %", "setting": "AA-induced ear edema; [1]", "value": 75.9, "unit": "%"},
      {"measurement": "Edema Mean", "setting": "AA-induced ear edema; [2]", "value": 2},
      {"measurement": "Inhibition vs AA %", "setting": "AA-induced ear edema; [2]", "value": 80.8, "unit": "%"},
      {"measurement": "Edema Mean", "setting": "AA-induced ear edema; [3]", "value": 1.6},
      {"measurement": "Inhibition vs AA %", "setting": "AA-induced ear edema; [3]", "value": 74.2, "unit": "%"}
    ]},
    {"smiles": "O=C(O)Cc1ccccc1Nc1c(Cl)cccc1Cl", "note": "[CD08100/02, 2-[2-(2,6-dichlorophenylamino)phenyl]acetic acid]", "values": [
      {"measurement": "Ear Edema Mean", "setting": "TPA-induced ear edema; CD08100/02 at 0.1%", "value": 5.80},
      {"measurement": "Inhibition vs TPA (%)", "setting": "TPA-induced ear edema; CD08100/02 at 0.1%", "value": 63.8, "unit": "%"},
      {"measurement": "Ear Edema Mean", "setting": "TPA-induced ear edema; CD08100/02 at 0.3%", "value": 6.40},
      {"measurement": "Inhibition vs TPA (%)", "setting": "TPA-induced ear edema; CD08100/02 at 0.3%", "value": 60.0, "unit": "%"},
      {"measurement": "Ear Edema Mean", "setting": "TPA-induced ear edema; CD08100/02 at 1%", "value": 4.80},
      {"measurement": "Inhibition vs TPA (%)", "setting": "TPA-induced ear edema; CD08100/02 at 1%", "value": 70.0, "unit": "%"},
      {"measurement": "reduced AA-induced ear edema in mice by up to", "setting": "AA-induced ear edema; CD08100/02 at 0.1%", "value": "up to 71.2%"},
      {"measurement": "Edema Mean", "setting": "AA-induced ear edema; [4]", "value": 4.2},
      {"measurement": "Inhibition vs AA %", "setting": "AA-induced ear edema; [4]", "value": 63.8, "unit": "%"},
      {"measurement": "Edema Mean", "setting": "AA-induced ear edema; [5]", "value": 3},
      {"measurement": "Inhibition vs AA %", "setting": "AA-induced ear edema; [5]", "value": 71.2, "unit": "%"},
      {"measurement": "Edema Mean", "setting": "AA-induced ear edema; [6]", "value": 2},
      {"measurement": "Inhibition vs AA %", "setting": "AA-induced ear edema; [6]", "value": 67.7, "unit": "%"},
      {"measurement": "reduced AA-induced ear edema in mice by up to", "setting": "AA-induced ear edema; CD08100/02 at 0.3%", "value": "≤ 80.6", "unit": "%"},
      {"measurement": "Edema Mean", "setting": "AA-induced ear edema; [7]", "value": 3.6},
      {"measurement": "Inhibition vs AA %", "setting": "AA-induced ear edema; [7]", "value": 69.0, "unit": "%"},
      {"measurement": "Edema Mean", "setting": "AA-induced ear edema; [8]", "value": 2.2},
      {"measurement": "Inhibition vs AA %", "setting": "AA-induced ear edema; [8]", "value": 78.8, "unit": "%"},
      {"measurement": "Edema Mean", "setting": "AA-induced ear edema; [9]", "value": 1.2},
      {"measurement": "Inhibition vs AA %", "setting": "AA-induced ear edema; [9]", "value": 80.6, "unit": "%"},
      {"measurement": "reduced AA-induced ear edema in mice by up to", "setting": "AA-induced ear edema; CD08100/02 at 1%", "value": "≤ 83.9", "unit": "%"},
      {"measurement": "Edema Mean", "setting": "AA-induced ear edema; [10]", "value": 2},
      {"measurement": "Inhibition vs AA %", "setting": "AA-induced ear edema; [10]", "value": 82.8, "unit": "%"},
      {"measurement": "Edema Mean", "setting": "AA-induced ear edema; CD08100/02 at 1%, 2 h Measurement", "value": 1},
      {"measurement": "Edema Mean", "setting": "AA-induced ear edema; CD08100/02 at 1%, 4 h Measurement", "value": 1}
    ]}
  ]
}
